The target of assay [1] is T1, PIP5K1A (Homo sapiens, UniProt Q99755).
T1 construct: purchased Eurofins DiscoverX KINOMEscan
Nature of the assay: DiscoverX KINOMEscan binding assay at 1 μM, PIP5K1A. The following applies: Compound Concentration 1000 nM, read-out: Percent Control. From the text:
(§1) Supplement cells-12-00287-s001.zip/File S2. KinomeScan data for the CAMKK2 probe and negative control.xlsx, sheet "SGC-CAMKK2-1" | column: Percent Control

Assay [2] addresses T2, ZAK (Homo sapiens, UniProt Q9NYL2).
T2 construct: purchased Eurofins DiscoverX KINOMEscan
Nature of the assay: DiscoverX KINOMEscan binding assay at 1 μM, ZAK. The following applies: Compound Concentration 1000 nM, read-out: Percent Control.
Source text: as §1

The target of assay [3] is T3, TNK1 (Homo sapiens, UniProt Q13470).
T3 construct: purchased Eurofins DiscoverX KINOMEscan
Nature of the assay: DiscoverX KINOMEscan binding assay at 1 μM, TNK1. To be noted: Compound Concentration 1000 nM, read-out: Percent Control.
Source text: as §1

For assay [4], the target named is T4, ANKK1 (Homo sapiens, UniProt Q8NFD2).
T4 construct: purchased Eurofins DiscoverX KINOMEscan
T4 sequence (Q8NFD2 whole entry): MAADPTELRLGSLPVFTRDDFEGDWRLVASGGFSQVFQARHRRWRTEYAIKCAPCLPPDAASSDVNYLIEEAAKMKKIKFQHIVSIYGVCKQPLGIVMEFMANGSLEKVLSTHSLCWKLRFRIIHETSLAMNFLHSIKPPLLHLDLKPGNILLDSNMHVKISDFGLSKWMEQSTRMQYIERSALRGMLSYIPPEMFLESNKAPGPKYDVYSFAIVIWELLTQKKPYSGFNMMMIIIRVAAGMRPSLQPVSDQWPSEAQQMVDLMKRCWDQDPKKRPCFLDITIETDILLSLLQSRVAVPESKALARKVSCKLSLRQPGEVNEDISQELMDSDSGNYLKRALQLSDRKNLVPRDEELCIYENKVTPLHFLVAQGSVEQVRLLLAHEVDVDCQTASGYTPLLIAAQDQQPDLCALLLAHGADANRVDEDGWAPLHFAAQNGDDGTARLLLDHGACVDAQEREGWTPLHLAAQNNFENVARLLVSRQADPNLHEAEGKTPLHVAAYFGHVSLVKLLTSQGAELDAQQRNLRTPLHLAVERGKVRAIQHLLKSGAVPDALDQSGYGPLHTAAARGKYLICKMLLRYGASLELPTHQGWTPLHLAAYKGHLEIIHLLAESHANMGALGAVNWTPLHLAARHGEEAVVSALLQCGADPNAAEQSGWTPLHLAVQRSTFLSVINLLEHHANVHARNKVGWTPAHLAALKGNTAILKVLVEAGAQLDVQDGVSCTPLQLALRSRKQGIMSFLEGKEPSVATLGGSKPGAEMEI
Nature of the assay: KINOMEscan 1 μM, ANKK1. The assay is classed as binding. To be noted: 1000 nM; Entrez ANKK1; read-out: Percent Control.
Source text: as §1

Assay [5] concerns the target T5, AURKB (Homo sapiens, UniProt Q96GD4).
T5 construct: purchased Eurofins DiscoverX KINOMEscan
Nature of the assay: KINOMEscan 1 μM, AURKB. The class given is binding. To be noted: 1000 nM; Entrez AURKB; read-out: Percent Control.
Source text: as §1

Assay [6] has as its target T6, PAK3 (Homo sapiens, UniProt O75914).
T6 construct: purchased Eurofins DiscoverX KINOMEscan
Nature of the assay: DiscoverX KINOMEscan binding assay at 1 μM, PAK3. The following applies: Compound Concentration 1000 nM, read-out: Percent Control.
Source text: as §1

Assay [7] has as its target T7, BTK (Homo sapiens, UniProt Q06187).
T7 construct: purchased Eurofins DiscoverX KINOMEscan
Nature of the assay: KINOMEscan 1 μM, BTK. The class given is binding. To be noted: 1000 nM; Entrez BTK; read-out: Percent Control.
Source text: as §1

In assay [8] the target is T8, AMPK-alpha2 (Homo sapiens, UniProt P54646).
T8 construct: purchased Eurofins DiscoverX KINOMEscan
Nature of the assay: KINOMEscan 1 μM, AMPK-alpha2. The class given is binding. The following applies: 1000 nM; Entrez PRKAA2; read-out: Percent Control.
Source text: as §1

Assay [9] addresses T9, AAK1 (Homo sapiens, UniProt Q2M2I8).
T9 construct: purchased Eurofins DiscoverX KINOMEscan
Nature of the assay: KINOMEscan 1 μM, AAK1. The class given is binding. The following applies: 1000 nM; Entrez AAK1; read-out: Percent Control.
Source text: as §1

The target of assay [10] is T10, AURKA (Homo sapiens, UniProt O14965).
T10 construct: purchased Eurofins DiscoverX KINOMEscan
T10 sequence (O14965 whole entry): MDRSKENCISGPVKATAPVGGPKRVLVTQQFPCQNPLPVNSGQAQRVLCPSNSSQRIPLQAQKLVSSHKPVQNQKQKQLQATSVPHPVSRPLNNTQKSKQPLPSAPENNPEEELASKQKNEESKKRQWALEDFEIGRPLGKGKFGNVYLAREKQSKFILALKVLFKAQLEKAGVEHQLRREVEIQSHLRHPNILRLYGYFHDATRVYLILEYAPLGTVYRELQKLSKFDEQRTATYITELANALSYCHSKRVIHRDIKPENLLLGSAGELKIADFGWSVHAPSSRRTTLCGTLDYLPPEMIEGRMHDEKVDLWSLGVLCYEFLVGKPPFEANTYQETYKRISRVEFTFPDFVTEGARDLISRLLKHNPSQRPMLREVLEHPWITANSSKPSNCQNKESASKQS
Nature of the assay: KINOMEscan 1 μM, AURKA. The assay is classed as binding. The following applies: 1000 nM; Entrez AURKA; read-out: Percent Control.
Source text: as §1

Assay [11] concerns the target T11, FLT3(N841I) (Homo sapiens, UniProt P36888, N841I).
T11 construct: purchased Eurofins DiscoverX KINOMEscan
Nature of the assay: KINOMEscan 1 μM, FLT3(N841I). The class given is binding. The following applies: 1000 nM; Entrez FLT3; read-out: Percent Control.
Source text: as §1

Assay [12] has as its target T12, TAOK1 (Homo sapiens, UniProt Q7L7X3).
T12 construct: purchased Eurofins DiscoverX KINOMEscan
Nature of the assay: KINOMEscan 1 μM, TAOK1. The assay is classed as binding. The following applies: 1000 nM; Entrez TAOK1; read-out: Percent Control.
Source text: as §1

Assay [13] concerns the target T13, VEGFR2 (Homo sapiens, UniProt P35968).
T13 construct: purchased Eurofins DiscoverX KINOMEscan
Nature of the assay: DiscoverX KINOMEscan binding assay at 1 μM, VEGFR2. The following applies: VEGFR2 (KDR); Compound Concentration 1000 nM; read-out: Percent Control.
Source text: as §1

Assay [14] deals with T14, PIK3CA(E542K) (Homo sapiens, UniProt P42336, E542K).
T14 construct: purchased Eurofins DiscoverX KINOMEscan
Nature of the assay: DiscoverX KINOMEscan binding assay at 1 μM, PIK3CA(E542K). To be noted: Compound Concentration 1000 nM, read-out: Percent Control.
Source text: as §1

Assay [15] addresses T15, p38-delta (Homo sapiens, UniProt O15264).
T15 construct: purchased Eurofins DiscoverX KINOMEscan
Nature of the assay: KINOMEscan 1 μM, p38-delta. The assay is classed as binding. To be noted: 1000 nM; Entrez MAPK13; read-out: Percent Control.
Source text: as §1

The target in assay [16] is T16, MEK1 (Homo sapiens, UniProt Q02750).
T16 construct: purchased Eurofins DiscoverX KINOMEscan
Nature of the assay: KINOMEscan 1 μM, MEK1. The class given is binding. The following applies: 1000 nM; Entrez MAP2K1; read-out: Percent Control.
Source text: as §1

The target of assay [17] is T17, BRAF (Homo sapiens, UniProt P15056).
T17 construct: purchased Eurofins DiscoverX KINOMEscan
Nature of the assay: KINOMEscan 1 μM, BRAF. The class given is binding. The following applies: 1000 nM; Entrez BRAF; read-out: Percent Control.
Source text: as §1

Assay [18] has as its target T18, MAP4K3 (Homo sapiens, UniProt Q8IVH8).
T18 construct: purchased Eurofins DiscoverX KINOMEscan
Nature of the assay: KINOMEscan 1 μM, MAP4K3. To be noted: 1000 nM; Entrez MAP4K3; read-out: Percent Control. The assay is classed as binding.
Source text: as §1

In assay [19] the target is T19, KIT(V559D,T670I) (Homo sapiens, UniProt P10721, T670I/V559D).
T19 construct: purchased Eurofins DiscoverX KINOMEscan
T19 sequence (P10721 26-976 V559D/T670I): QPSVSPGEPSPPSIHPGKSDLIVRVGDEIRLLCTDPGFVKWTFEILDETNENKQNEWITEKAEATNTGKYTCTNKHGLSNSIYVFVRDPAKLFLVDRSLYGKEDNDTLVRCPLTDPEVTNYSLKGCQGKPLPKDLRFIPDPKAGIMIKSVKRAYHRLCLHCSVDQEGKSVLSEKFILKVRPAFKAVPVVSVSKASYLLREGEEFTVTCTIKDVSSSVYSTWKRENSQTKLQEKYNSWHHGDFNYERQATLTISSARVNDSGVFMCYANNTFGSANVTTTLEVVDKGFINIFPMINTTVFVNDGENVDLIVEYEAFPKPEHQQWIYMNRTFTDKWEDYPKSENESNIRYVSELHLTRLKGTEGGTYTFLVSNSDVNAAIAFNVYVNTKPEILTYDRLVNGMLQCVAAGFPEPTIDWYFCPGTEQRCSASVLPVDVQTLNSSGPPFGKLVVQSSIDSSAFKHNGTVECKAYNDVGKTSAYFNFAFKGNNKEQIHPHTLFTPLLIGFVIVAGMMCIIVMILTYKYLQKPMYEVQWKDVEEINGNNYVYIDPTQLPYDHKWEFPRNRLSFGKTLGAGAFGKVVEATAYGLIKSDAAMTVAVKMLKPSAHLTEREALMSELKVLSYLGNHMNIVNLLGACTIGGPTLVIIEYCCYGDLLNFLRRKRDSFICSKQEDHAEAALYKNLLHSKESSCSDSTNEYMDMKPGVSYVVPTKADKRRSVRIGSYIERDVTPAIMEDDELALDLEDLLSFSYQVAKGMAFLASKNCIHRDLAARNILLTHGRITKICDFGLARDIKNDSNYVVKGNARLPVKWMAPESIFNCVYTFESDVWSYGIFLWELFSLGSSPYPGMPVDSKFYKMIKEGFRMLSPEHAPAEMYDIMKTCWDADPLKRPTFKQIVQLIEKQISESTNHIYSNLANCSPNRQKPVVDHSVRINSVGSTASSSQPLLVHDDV
Nature of the assay: KINOMEscan 1 μM, KIT(V559D,T670I). The assay is classed as binding. To be noted: 1000 nM; Entrez KIT; read-out: Percent Control.
Source text: as §1

Assay [20] concerns the target T20, MLK3 (Homo sapiens, UniProt Q16584).
T20 construct: purchased Eurofins DiscoverX KINOMEscan
Nature of the assay: KINOMEscan binding assay at 1 μM, MLK3. The following applies: Compound Concentration 1000 nM; read-out: Percent Control. From the text: (§2) Supplement cells-12-00287-s001.zip/File S2. KinomeScan data for the CAMKK2 probe and negative control.xlsx, sheet "SGC-CAMKK2-1N" | column: Percent Control

In assay [21] the target is T21, CSF1R-autoinhibited (Homo sapiens, UniProt P07333).
T21 construct: purchased Eurofins DiscoverX KINOMEscan
Nature of the assay: KINOMEscan at 1 μM, CSF1R-autoinhibited. The assay is classed as binding. To be noted: 1000 nM, read-out: Percent Control.
Source text: as §2

The target in assay [22] is T22, ARK5 (Homo sapiens, UniProt O60285).
T22 construct: purchased Eurofins DiscoverX KINOMEscan
Nature of the assay: KINOMEscan at 1 μM, ARK5. The class given is binding. To be noted: 1000 nM, read-out: Percent Control.
Source text: as §2

In assay [23] the target is T23, JNK1 (Homo sapiens, UniProt P45983).
T23 construct: purchased Eurofins DiscoverX KINOMEscan
Nature of the assay: KINOMEscan at 1 μM, JNK1. To be noted: 1000 nM, read-out: Percent Control. The assay is classed as binding.
Source text: as §2

The target in assay [24] is T24, JAK1(JH1domain-catalytic) (Homo sapiens, UniProt P23458).
T24 construct: JAK1(JH1domain-catalytic); purchased Eurofins DiscoverX KINOMEscan
Nature of the assay: KINOMEscan at 1 μM, JAK1(JH1domain-catalytic). The assay is classed as binding. To be noted: 1000 nM, read-out: Percent Control.
Source text: as §2

Assay [25] addresses T25, ACVRL1 (Homo sapiens, UniProt P37023).
T25 construct: purchased Eurofins DiscoverX KINOMEscan
Nature of the assay: KINOMEscan at 1 μM, ACVRL1. The class given is binding. The following applies: 1000 nM, read-out: Percent Control.
Source text: as §2

Assay [26] addresses T26, LKB1 (Homo sapiens, UniProt Q15831).
T26 construct: purchased Eurofins DiscoverX KINOMEscan
Nature of the assay: KINOMEscan binding assay at 1 μM, LKB1. To be noted: Compound Concentration 1000 nM; read-out: Percent Control.
Source text: as §2

The target of assay [27] is T27, CLK2 (Homo sapiens, UniProt P49760).
T27 construct: purchased Eurofins DiscoverX KINOMEscan
T27 sequence (P49760 whole entry): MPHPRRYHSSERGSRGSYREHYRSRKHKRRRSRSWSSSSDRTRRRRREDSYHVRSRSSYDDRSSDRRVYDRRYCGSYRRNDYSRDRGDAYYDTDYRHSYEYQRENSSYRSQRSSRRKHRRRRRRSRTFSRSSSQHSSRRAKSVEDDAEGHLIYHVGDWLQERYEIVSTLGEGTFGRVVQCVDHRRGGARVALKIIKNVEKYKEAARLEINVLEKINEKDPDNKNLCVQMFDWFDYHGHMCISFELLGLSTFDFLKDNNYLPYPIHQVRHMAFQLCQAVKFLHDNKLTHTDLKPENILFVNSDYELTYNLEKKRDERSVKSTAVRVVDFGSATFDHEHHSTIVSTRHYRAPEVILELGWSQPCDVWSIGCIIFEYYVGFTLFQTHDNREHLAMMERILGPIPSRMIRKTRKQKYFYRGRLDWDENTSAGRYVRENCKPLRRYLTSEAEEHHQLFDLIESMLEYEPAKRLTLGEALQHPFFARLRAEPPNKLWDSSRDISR
Nature of the assay: KINOMEscan at 1 μM, CLK2. The class given is binding. To be noted: 1000 nM, read-out: Percent Control.
Source text: as §2

Assay [28] concerns the target T28, RIOK1 (Homo sapiens, UniProt Q9BRS2).
T28 construct: purchased Eurofins DiscoverX KINOMEscan
Nature of the assay: KINOMEscan at 1 μM, RIOK1. The following applies: 1000 nM, read-out: Percent Control. The assay is classed as binding.
Source text: as §2

Assay [29] deals with T29, RIPK1 (Homo sapiens, UniProt Q13546).
T29 construct: purchased Eurofins DiscoverX KINOMEscan
Nature of the assay: KINOMEscan at 1 μM, RIPK1. The class given is binding. To be noted: 1000 nM, read-out: Percent Control.
Source text: as §2

The target of assay [30] is T30, EPHA1 (Homo sapiens, UniProt P21709).
T30 construct: purchased Eurofins DiscoverX KINOMEscan
Nature of the assay: KINOMEscan at 1 μM, EPHA1. The class given is binding. The following applies: 1000 nM, read-out: Percent Control.
Source text: as §2

For assay [31], the target named is T31, MLCK (Homo sapiens, UniProt Q32MK0).
T31 construct: purchased Eurofins DiscoverX KINOMEscan
Nature of the assay: KINOMEscan binding assay at 1 μM, MLCK. To be noted: Compound Concentration 1000 nM; read-out: Percent Control.
Source text: as §2

Assay [32] concerns the target T32, ERN1 (Homo sapiens, UniProt O75460).
T32 construct: purchased Eurofins DiscoverX KINOMEscan
Nature of the assay: KINOMEscan at 1 μM, ERN1. The assay is classed as binding. The following applies: 1000 nM, read-out: Percent Control.
Source text: as §2

For assay [33], the target named is T33, PLK4 (Homo sapiens, UniProt O00444).
T33 construct: purchased Eurofins DiscoverX KINOMEscan
Nature of the assay: KINOMEscan binding assay at 1 μM, PLK4. The following applies: Compound Concentration 1000 nM; read-out: Percent Control.
Source text: as §2

For assay [34], the target named is T18, MAP4K3. Nature of the assay: KINOMEscan at 1 μM, MAP4K3. The assay is classed as binding. To be noted: 1000 nM, read-out: Percent Control.
Source text: as §2

T18 sequence (Q8IVH8 whole entry): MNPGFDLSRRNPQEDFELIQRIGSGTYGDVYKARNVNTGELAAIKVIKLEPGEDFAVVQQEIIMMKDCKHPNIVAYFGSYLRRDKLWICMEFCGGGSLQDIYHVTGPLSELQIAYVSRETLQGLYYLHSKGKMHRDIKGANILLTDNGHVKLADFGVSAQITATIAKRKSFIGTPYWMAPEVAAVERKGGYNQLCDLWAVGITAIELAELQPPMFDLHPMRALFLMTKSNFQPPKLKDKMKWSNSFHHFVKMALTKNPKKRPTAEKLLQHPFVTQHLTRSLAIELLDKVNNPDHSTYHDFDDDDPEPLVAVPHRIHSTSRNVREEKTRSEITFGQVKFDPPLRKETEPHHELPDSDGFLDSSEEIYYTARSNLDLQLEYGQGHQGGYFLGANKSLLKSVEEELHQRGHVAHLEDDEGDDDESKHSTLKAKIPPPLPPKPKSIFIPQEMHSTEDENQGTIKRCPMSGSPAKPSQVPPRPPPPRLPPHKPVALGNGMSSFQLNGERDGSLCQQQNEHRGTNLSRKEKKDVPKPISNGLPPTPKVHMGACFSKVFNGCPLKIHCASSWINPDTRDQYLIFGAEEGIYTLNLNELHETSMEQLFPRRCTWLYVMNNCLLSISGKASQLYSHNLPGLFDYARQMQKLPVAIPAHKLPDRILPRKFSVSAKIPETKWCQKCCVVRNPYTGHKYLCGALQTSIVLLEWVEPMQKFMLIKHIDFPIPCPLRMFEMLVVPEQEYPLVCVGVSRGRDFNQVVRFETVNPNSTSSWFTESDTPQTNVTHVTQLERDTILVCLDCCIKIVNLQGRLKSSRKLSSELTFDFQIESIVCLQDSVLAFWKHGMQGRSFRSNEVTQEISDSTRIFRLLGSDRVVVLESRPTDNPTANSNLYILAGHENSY
T9 sequence (Q2M2I8 whole entry): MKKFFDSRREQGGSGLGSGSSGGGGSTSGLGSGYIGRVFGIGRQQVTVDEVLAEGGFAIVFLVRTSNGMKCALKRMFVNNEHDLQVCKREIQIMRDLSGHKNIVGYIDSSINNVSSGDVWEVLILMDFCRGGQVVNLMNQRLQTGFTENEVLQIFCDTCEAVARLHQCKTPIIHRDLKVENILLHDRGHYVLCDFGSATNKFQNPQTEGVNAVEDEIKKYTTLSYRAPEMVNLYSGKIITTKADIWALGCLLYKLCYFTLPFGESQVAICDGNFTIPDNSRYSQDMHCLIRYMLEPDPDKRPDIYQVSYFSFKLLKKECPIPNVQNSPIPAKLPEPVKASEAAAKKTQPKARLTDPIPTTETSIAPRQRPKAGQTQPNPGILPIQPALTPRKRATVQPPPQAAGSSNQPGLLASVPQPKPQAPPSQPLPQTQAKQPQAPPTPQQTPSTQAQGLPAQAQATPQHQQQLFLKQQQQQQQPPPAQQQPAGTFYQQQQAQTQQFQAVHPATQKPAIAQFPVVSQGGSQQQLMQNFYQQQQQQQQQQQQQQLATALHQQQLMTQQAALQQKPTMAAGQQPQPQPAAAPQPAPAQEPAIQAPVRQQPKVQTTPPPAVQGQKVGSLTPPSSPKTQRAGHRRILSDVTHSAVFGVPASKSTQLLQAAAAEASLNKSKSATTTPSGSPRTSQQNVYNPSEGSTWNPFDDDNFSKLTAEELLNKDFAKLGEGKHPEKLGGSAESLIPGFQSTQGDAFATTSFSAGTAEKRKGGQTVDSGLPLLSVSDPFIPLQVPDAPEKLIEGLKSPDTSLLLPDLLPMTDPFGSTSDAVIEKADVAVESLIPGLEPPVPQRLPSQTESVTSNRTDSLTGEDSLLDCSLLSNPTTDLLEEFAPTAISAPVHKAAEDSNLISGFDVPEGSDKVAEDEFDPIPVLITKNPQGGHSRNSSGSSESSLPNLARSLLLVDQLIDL
T1 sequence (Q99755 whole entry): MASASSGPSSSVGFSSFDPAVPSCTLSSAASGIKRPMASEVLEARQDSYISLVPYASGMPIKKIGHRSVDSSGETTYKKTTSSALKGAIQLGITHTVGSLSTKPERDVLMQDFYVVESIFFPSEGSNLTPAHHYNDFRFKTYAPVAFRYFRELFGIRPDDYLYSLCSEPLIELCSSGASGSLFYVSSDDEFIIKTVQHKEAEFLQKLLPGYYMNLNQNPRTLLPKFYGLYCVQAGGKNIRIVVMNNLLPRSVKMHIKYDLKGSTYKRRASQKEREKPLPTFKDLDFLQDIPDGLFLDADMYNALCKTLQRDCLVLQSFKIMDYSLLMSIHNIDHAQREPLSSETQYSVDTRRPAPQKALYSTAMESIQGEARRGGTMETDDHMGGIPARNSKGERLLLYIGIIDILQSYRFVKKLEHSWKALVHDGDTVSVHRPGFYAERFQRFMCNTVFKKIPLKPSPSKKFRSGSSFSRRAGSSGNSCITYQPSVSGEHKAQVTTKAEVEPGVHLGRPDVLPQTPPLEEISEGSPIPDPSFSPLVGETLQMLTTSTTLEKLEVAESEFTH

On to `Cc1cccc(-c2cnc3occ(-c4ccc(C(=O)O)c(C5CCCC5)c4)c3c2)c1` [SGC-CAMKK2-1 (YL-36)], for which the remaining binding at 1 µM in assay [1], in [2], in assay [3], in assay [4], in assay [5] and in assay [6] was 100% each time. Further, the remaining binding at 1 µM is 100% in assay [7]; 100% in [8]; 98% in assay [9]; 100% in [10]; 95% in [11]; 78% in assay [12]. Moreover, the remaining binding at 1 µM in [13] amounted to 100%; in assay [14], 100%; in [15], 69%; in [16], 100%; in assay [17] it was 100%; in assay [18], 78%. For the same compound, the remaining binding at 1 µM in [19] was 100%.

On to `O=C(O)c1ccc(-c2coc3ncc(-c4ccccc4)cc23)cc1Cl` [SGC-CAMKK2-1N (UNC-YL-83)], for which the remaining binding at 1 µM in [20] was determined as 100%; in assay [21], 89%; in assay [22] it was 84%; in [23] it was 81%; in assay [24], 82%; in assay [25], 100%. Moreover, the remaining binding at 1 µM in assay [26] was 100%; in [27], 62%; in assay [28], 91%; in assay [29] it was 90%; in assay [30] it was 61%; in [31], 100%. The remaining binding at 1 µM stood at 76% in [32], 100% in [33] and 91% in [34].

Source of the values: PMC9856672, “SGC-CAMKK2-1: A Chemical Probe for CAMKK2” (Cells, 2023).
